Holding throughout (format): functional
The subject of one assay is SNB-75. In words: Antiproliferative activity against human SNB75 cells after 48 hrs by SRB protein assay. To be noted: SNB-75, 48 h.
Another assay concerns HCC 2998. In words: Antiproliferative activity against human HCC2998 cells after 48 hrs by SRB protein assay. To be noted: HCC 2998, 48 h. A general note: In SRB staining, fixed cells bind dye roughly in proportion to their protein.
The test system of the next assay is HOP-92. Nature of the assay: Antiproliferative activity against human HOP92 cells after 48 hrs by SRB protein assay. To be noted: HOP-92, 48 h.
The test system of a further assay is A498. Nature of the assay: Antiproliferative activity against human A498 cells after 48 hrs by SRB protein assay. To be noted: A498, 48 h.
The subject of a further assay is IGROV-1. Nature of the assay: Antiproliferative activity against human IGROV1 cells after 48 hrs by SRB protein assay. To be noted: IGROV-1, 48 h.
A further assay has as its system RXF 393. Nature of the assay: Antiproliferative activity against human RXF393 cells after 48 hrs by SRB protein assay. The note with it: RXF 393, 48 h.
The subject of another assay is NCI-H522. In words: Antiproliferative activity against human NCI-H522 cells after 48 hrs by SRB protein assay. The note with it: NCI-H522, 48 h.
The test system of another assay is COLO 205. In words: Antiproliferative activity against human COLO205 cells after 48 hrs by SRB protein assay. To be noted: COLO 205, 48 h.
The subject of another assay is SK-OV-3. Nature of the assay: Antiproliferative activity against human SKOV3 cells after 48 hrs by SRB protein assay. To be noted: SK-OV-3, 48 h.
In a further assay the test system is T47D. In words: Antiproliferative activity against human T47D cells after 48 hrs by SRB protein assay.
The next assay relates to NCI-H226. Nature of the assay: Antiproliferative activity against human NCI-H226 cells after 48 hrs by SRB protein assay. The note with it: NCI-H226, 48 h.
A further assay relates to UACC-62. Nature of the assay: Antiproliferative activity against human UACC62 cells after 48 hrs by SRB protein assay. The note with it: UACC-62, 48 h.
Another assay relates to SN12C. In words: Antiproliferative activity against human SN12C cells after 48 hrs by SRB protein assay.
In a further assay the test system is SR. In words: Antiproliferative activity against human SR cells after 48 hrs by SRB protein assay.
Another assay deals with HOP-62. Nature of the assay: Antiproliferative activity against human HOP62 cells after 48 hrs by SRB protein assay. The note with it: HOP-62, 48 h.
Another assay has as its system CCRF-CEM. Nature of the assay: Antiproliferative activity against human CCRF-CEM cells after 48 hrs by SRB protein assay.
The subject of another assay is MOLT-4. In words: Antiproliferative activity against human MOLT4 cells after 48 hrs by SRB protein assay. To be noted: MOLT-4, 48 h.
Another assay concerns RPMI-8226. In words: Antiproliferative activity against human RPMI8226 cells after 48 hrs by SRB protein assay. To be noted: RPMI-8226, 48 h.
A further assay deals with SF-295. Nature of the assay: Antiproliferative activity against human SF295 cells after 48 hrs by SRB protein assay. To be noted: SF-295, 48 h.
In a further assay the test system is LOX IMVI. Nature of the assay: Antiproliferative activity against human LOXIMVI cells after 48 hrs by SRB protein assay.
In another assay the test system is SK-MEL-5. Nature of the assay: Antiproliferative activity against human SK-MEL-5 cells after 48 hrs by SRB protein assay. The note with it: SK-MEL-5, 48 h.
In the next assay the test system is OVCAR-3. Nature of the assay: Antiproliferative activity against human OVCAR-3 cells after 48 hrs by SRB protein assay. The note with it: OVCAR-3, 48 h.
A further assay relates to ACHN. In words: Antiproliferative activity against human ACHN cells after 48 hrs by SRB protein assay.
For the next assay, the system named is CAKI-1. In words: Antiproliferative activity against human CAKI1 cells after 48 hrs by SRB protein assay. To be noted: CAKI-1, 48 h.
The next assay concerns MDA-MB-231. Nature of the assay: Antiproliferative activity against human MDA-MB-231 cells after 48 hrs by SRB protein assay. To be noted: MDA-MB-231, 48 h.
A further assay concerns MDA-MB-435. Nature of the assay: Antiproliferative activity against human MDA-MB-435 cells after 48 hrs by SRB protein assay. The note with it: MDA-MB-435, 48 h.
In another assay the test system is UO-31. In words: Antiproliferative activity against human UO31 cells after 48 hrs by SRB protein assay. The note with it: UO-31, 48 h.
The test system of the next assay is NCI-H460. In words: Antiproliferative activity against human NCI-H460 cells after 48 hrs by SRB protein assay. The note with it: NCI-H460, 48 h.
For a further assay, the system named is MCF7. In words: Antiproliferative activity against human MCF7 cells after 48 hrs by SRB protein assay. To be noted: MCF7, 48 h.
The test system of another assay is K562. Nature of the assay: Antiproliferative activity against human K562 cells after 48 hrs by SRB protein assay. The note with it: K562, 48 h.
The next assay deals with HCT-116. In words: Antiproliferative activity against human HCT116 cells after 48 hrs by SRB protein assay. The note with it: HCT-116, 48 h.
The next assay has as its system HT-29. Nature of the assay: Antiproliferative activity against human HT29 cells after 48 hrs by SRB protein assay. The note with it: HT-29, 48 h.
The next assay concerns U-251. In words: Antiproliferative activity against human U251 cells after 48 hrs by SRB protein assay. The note with it: U-251, 48 h.
For the next assay, the system named is Malme-3M. In words: Antiproliferative activity against human MALME3M cells after 48 hrs by SRB protein assay.
The subject of another assay is M14. Nature of the assay: Antiproliferative activity against human M14 cells after 48 hrs by SRB protein assay. To be noted: M14, 48 h.
Another assay deals with NCI/ADR-RES. Nature of the assay: Antiproliferative activity against human NCI/ADR-RES cells after 48 hrs by SRB protein assay.

For `Cc1ccc(-c2c(C#N)c(N)nc(N3CCOCC3)c2C#N)o1`, in the assay with SNB-75, it took 2.75 µM to inhibit growth by half (GI50).

In the assay on HCC 2998, `N#Cc1c(N)nc(N2CCOCC2)c(C#N)c1-c1cccnc1` had a 50% growth inhibitory concentration (GI50) of 8.71 µM.

For `N#Cc1c(N)nc(N2CCOCC2)c(C#N)c1-c1ccc(Cl)cc1`, the GI50 is 8.91 µM in the assay on HOP-92; 8.13 µM with A498; 14.1 µM with IGROV-1; 14.5 µM in the assay on SNB-75; 0.479 µM in the assay on RXF 393.

As for `COc1ccc(-c2c(C#N)c(N)nc(N3CCOCC3)c2C#N)cc1`, the GI50 in the assay with A498 was 7.41 µM; with NCI-H522 it was 8.71 µM; with COLO 205, 2.14 µM; with IGROV-1, 3.09 µM; with SK-OV-3 it was 5.01 µM; with T47D, 0.832 µM.

As to `N#Cc1c(N)nc(N2CCOCC2)c(C#N)c1-c1ccccn1`, the GI50 in the assay with NCI-H226 was 0.513 µM; in the assay with UACC-62, 0.0339 µM; with SN12C, 0.038 µM.

For the compound `N#Cc1c(N)nc(N2CCSCC2)c(C#N)c1-c1ccc(O)cc1`, the GI50 in the assay with SR was 11.2 µM; in the assay on HOP-92 it was 10 µM; in the assay on SNB-75, 11 µM; in the assay with HOP-62, 12.6 µM.

Take `N#Cc1c(N)nc(N2CCOCC2)c(C#N)c1-c1ccccc1Cl`: the values for the GI50 with A498, in the assay with NCI-H522 and with SNB-75 were 2.29 µM, 0.0234 µM and 0.417 µM, respectively. Besides, in the assay on NCI-H522 (read-out: Log TGI (converted)), the TGI was 2.82 µM.

For `N#Cc1c(NCc2ccccc2)nc(NCc2ccccc2)c(C#N)c1-c1cccc(O)c1`, the GI50 with CCRF-CEM was 3.39 µM; with MOLT-4 it was 3.31 µM; with RPMI-8226, 3.09 µM; in the assay with SR, 2.09 µM; in the assay with HOP-92, 2.51 µM; with NCI-H226, 2.88 µM. Further, the GI50 was 2.95 µM with SF-295; 2.95 µM in the assay with LOX IMVI; 1.7 µM in the assay with SK-MEL-5; 2.09 µM in the assay on UACC-62; 3.31 µM with OVCAR-3; 2 µM in the assay with A498. Moreover, the GI50 is 2.63 µM with ACHN; 2.75 µM with CAKI-1; 2.29 µM in the assay with SN12C; 2.24 µM in the assay with MDA-MB-231; 2.88 µM in the assay with MDA-MB-435.

Turning to `COc1ccc(OC)c(-c2c(C#N)c(N)nc(N3CCOCC3)c2C#N)c1`, the GI50 in the assay on SK-OV-3 is 12 µM; with SNB-75 it was 12.9 µM.

On to `N#Cc1c(N)nc(N2CCOCC2)c(C#N)c1-c1ccc(Cl)cc1Cl`, for which the GI50 in the assay with HOP-92 is 3.31 µM; with A498, 2.69 µM; with MDA-MB-435, 5.75 µM; with NCI-H522 it was 4.79 µM; in the assay with IGROV-1, 6.61 µM; in the assay with SNB-75, 6.31 µM. In addition, the GI50 is 5.62 µM in the assay on RXF 393, 3.24 µM in the assay on UO-31, 9.33 µM with NCI-H460 and 8.71 µM in the assay on MCF7.

Regarding `N#Cc1c(N)nc(N2CCOCC2)c(C#N)c1-c1cccc(O)c1`, the 50% growth inhibitory concentration (GI50) in the assay with A498 is 14.8 µM; in the assay with IGROV-1, 18.6 µM; in the assay with SNB-75, 17.4 µM.

Consider `N#Cc1c(N)nc(N2CCOCC2)c(C#N)c1-c1c(Cl)cccc1Cl`, for which the GI50 was 2.4 µM with OVCAR-3; 3.72 µM in the assay on A498; 2.24 µM with CAKI-1; 3.55 µM with MDA-MB-231; 1.55 µM in the assay on MDA-MB-435; 2.34 µM in the assay with NCI-H522. The GI50 in the assay with IGROV-1 was 2 µM; in the assay on SK-OV-3 it was 4.07 µM; in the assay with T47D, 3.39 µM; in the assay with SNB-75 it was 1.74 µM; in the assay with HCC 2998, 0.0182 µM; in the assay with MCF7, 2.95 µM. The GI50 in the assay on K562 was 3.31 µM; with HOP-62, 3.55 µM; with HCT-116, 3.09 µM; in the assay with HT-29 it was 3.31 µM; with U-251, 3.89 µM; in the assay on Malme-3M, 3.72 µM. Further, the values for the GI50 in the assay with M14 and in the assay with NCI/ADR-RES were 2.45 µM and 2.34 µM, respectively. For the same compound, in the assay on HCC 2998, the LC50 was 20 µM. Also, in the assay on HCC 2998 (read-out: Log TGI (converted)), the concentration for total growth inhibition (TGI) is 2.45 µM.

For `N#Cc1c(N)nc(N2CCOCC2)c(C#N)c1-c1ccncc1`, the GI50 with A498 is 18.6 µM; with IGROV-1, 12.3 µM; in the assay on T47D, 12.6 µM; in the assay on HCC 2998, 13.5 µM; with Malme-3M, 9.12 µM.

Turning to `COc1cc(-c2c(C#N)c(N)nc(N3CCOCC3)c2C#N)cc(OC)c1OC`, the GI50 in the assay with SR was 13.5 µM; with COLO 205, 5.62 µM; with T47D, 15.1 µM; with SNB-75, 1.62 µM; in the assay on HCC 2998 it was 5.89 µM.

A word on the GI50: it is the concentration that inhibits growth by half. A word on the TGI: it is the concentration at which net growth stops. Usually LC50 stands for the concentration lethal to half of the exposed cells or organisms. Higher therefore signals a less lethal substance.

The values are drawn from ChEMBL document CHEMBL1139048, “Synthesis and in vitro antitumoral activity of new 3,5-dicyanopyridine derivatives” (2007).
